Data as given in PMC6271338, “Synthesis and Cytotoxic Evaluation of Alkoxylated Chalcones” (Molecules, 2014).

Legend:
HepG2 cells = assay: In vitro anti-proliferative SRB assay, HepG2; format: cell-based, human; conditions: for IC50: Homo sapiens, HepG2, increasing concentrations up to 30 μM, mean ± SD of at least three independent experiments; for SI (CC50 HMLE/IC50 HepG2) / SI (CC50 L02/IC50 HepG2): selectivity index; for SI (CC50 HMLE/IC50 HepG2): HMLE vs HepG2; for SI (CC50 L02/IC50 HepG2): L02 vs HepG2
Protocol: (§1) HepG2 and MCF7 cells were grown in the Eagle’s minimum essential medium with Earle’s balanced salts (MEM-EBSS) medium, HeLa, A549 and L02 cells were grown in Dulbecco’s Modified Eagle Media (DMEM), SW1990 cells were grown in RPMI-1640 medium, and HMLE cell were grown in DMEM/F-12 medium. […]
(§2) Cells were seeded into 96-well plates (4000 cells/well) and incubated at 37 °C in a humidified 5% CO2 atmosphere. After 24 h, the cells were treated with different concentrations of the compounds for 48 h in triplicate to generate dose-response curves. Cell viability was evaluated using the sulforhodamine B (SRB) assay as previous described.

HeLa cells = assay: In vitro anti-proliferative SRB assay, HeLa; format: cell-based, human; conditions: for IC50: Homo sapiens, HeLa, increasing concentrations up to 30 μM, mean ± SD of at least three independent experiments; for SI (CC50 HMLE/IC50 Hela) / SI (CC50 L02/IC50 Hela): selectivity index; for SI (CC50 HMLE/IC50 Hela): HMLE vs HeLa; for SI (CC50 L02/IC50 Hela): L02 vs HeLa
Protocol: as §1, §2

MCF-7 cells = assay: In vitro anti-proliferative SRB assay, MCF-7; format: cell-based, human; conditions: for IC50: Homo sapiens, MCF7, increasing concentrations up to 30 μM, mean ± SD of at least three independent experiments; for SI (CC50 HMLE/IC50 MCF7) / SI (CC50 L02/IC50 MCF7): selectivity index; for SI (CC50 HMLE/IC50 MCF7): HMLE vs MCF7; for SI (CC50 L02/IC50 MCF7): L02 vs MCF7
Protocol: as §1, §2

A549 cells = assay: In vitro anti-proliferative SRB assay, A549; format: cell-based, human; conditions: for IC50: Homo sapiens, A549, increasing concentrations up to 30 μM, mean ± SD of at least three independent experiments; for SI (CC50 HMLE/IC50 A549) / SI (CC50 L02/IC50 A549): selectivity index; for SI (CC50 HMLE/IC50 A549): HMLE vs A549; for SI (CC50 L02/IC50 A549): L02 vs A549
Protocol: as §1, §2

SW1990 cells = assay: In vitro anti-proliferative SRB assay, SW1990; format: cell-based, human; conditions: for IC50: Homo sapiens, SW1990, increasing concentrations up to 30 μM, mean ± SD of at least three independent experiments; for SI (CC50 HMLE/IC50 SW1990) / SI (CC50 L02/IC50 SW1990): selectivity index; for SI (CC50 HMLE/IC50 SW1990): HMLE vs SW1990; for SI (CC50 L02/IC50 SW1990): L02 vs SW1990
Protocol: as §1, §2

[1] = Cytotoxicity (SRB) against non-tumoral HMLE cells; format: cell-based, human; conditions: human, HMLE cells (non-tumoral human mammary epithelial cells); increasing concentrations up to 100 μM; mean ± SD of at least three independent experiments; read-out: Normal Human Cell Lines, CC50, HMLE
Protocol: (§3) All compounds were also evaluated for their cytotoxic activity against two non-tumoral human cell lines named human mammary epithelial cell (HMLE) and L02 (a human liver cell line) in Table 2 and SI values between the CC50 in non-tumoral cell lines and IC50 in tumoral cells calculated.
as §1
(§4) Cells were seeded into 96-well plates (4000 cells/well) and incubated at 37 °C in a humidified 5% CO2 atmosphere. After 24 h, the cells were treated with different concentrations of the compounds for 48 h in triplicate to generate dose-response curves. Cell viability was evaluated using the sulforhodamine B (SRB) assay as previous described. […] Etoposide was used as the positive control.

[2] = Cytotoxicity (SRB) against non-tumoral L02 cells; format: cell-based, human; conditions: human, L02 cells (non-tumoral human liver cell line); increasing concentrations up to 100 μM; mean ± SD of at least three independent experiments; read-out: Normal Human Cell Lines, CC50, L02
Protocol: as §3, §1, §4

SMILES | IC50 (HepG2 cells) [µM] | IC50 (HeLa cells) [µM] | IC50 (MCF-7 cells) [µM] | IC50 (A549 cells) [µM] | IC50 (SW1990 cells) [µM] | CC50 at 48 h [1] [µM] | CC50 at 48 h [2] [µM] | melting point [°C] | SI (CC50 HMLE/IC50 HepG2) (HepG2 cells) | SI (CC50 L02/IC50 HepG2) (HepG2 cells) | SI (CC50 HMLE/IC50 Hela) (HeLa cells) | SI (CC50 L02/IC50 Hela) (HeLa cells) | SI (CC50 HMLE/IC50 MCF7) (MCF-7 cells) | SI (CC50 L02/IC50 MCF7) (MCF-7 cells) | SI (CC50 HMLE/IC50 A549) (A549 cells) | SI (CC50 L02/IC50 A549) (A549 cells) | SI (CC50 HMLE/IC50 SW1990) (SW1990 cells) | SI (CC50 L02/IC50 SW1990) (SW1990 cells)
COc1ccc(C(=O)/C=C/c2c(OC)cccc2OC)c(OCc2ccccc2)c1 [b14, (E)-1-(2-(Benzyloxy)-4-methoxyphenyl)-3-(2,6-dimethoxyphenyl)prop-2-en-1-one] | > 30 | > 30 | > 30 | > 30 | > 30 | > 100 | > 100 | 82.2 to 83.6 |  |  |  |  |  |  |  |  |  | 
COc1cc(C(=O)/C=C/c2c(OC)cccc2OC)ccc1OCc1ccccc1 [b15, (E)-1-(4-(Benzyloxy)-3-methoxyphenyl)-3-(2,6-dimethoxyphenyl)prop-2-en-1-one] | > 30 | > 30 | > 30 | > 30 | > 30 | > 100 | > 100 | 112.8 to 114.1 |  |  |  |  |  |  |  |  |  | 
CCOc1cc(OC)ccc1C(=O)/C=C/c1c(OC)cccc1OC [b17, (E)-1-(2-Ethoxy-4-methoxyphenyl)-3-(2,6-dimethoxyphenyl)prop-2-en-1-one] | 12 ± 0.23 | 8.54 ± 0.14 | 7.74 ± 0.1 | 9.33 ± 0.3 |  | 9.03 ± 0.8 | 10.9 ± 0.42 | 98.7 to 100.2 | 0.8 | 0.9 | 1.1 | 1.3 | 1.2 | 1.4 | 1.0 | 1.2 | 0.8 | 1.0
COc1ccc(C(=O)/C=C/c2c(OC)cccc2OC)cc1OC [b19, (E)-1-(3,4-Dimethoxyphenyl)-3-(2,6-dimethoxyphenyl)prop-2-en-1-one] | 7.12 ± 0.67 | 9.26 ± 0.04 | 19.7 ± 0.2 | 13.6 ± 0.85 | 13.84 ± 0.06 | 10.5 ± 0.41 | 39.8 ± 6.32 | 120.5 to 122.7 | 1.5 | 5.6 | 1.1 | 4.3 | 0.5 | 2.0 | 0.8 | 2.9 | 0.8 | 2.9
COc1cccc(OC)c1/C=C/C(=O)c1ccc2c(c1)OCO2 [b20, (E)-1-(Benzo[d][1,3]dioxol-5-yl)-3-(2,6-dimethoxyphenyl)prop-2-en-1-one] | 17.5 ± 0.54 | 16.2 ± 0.95 | 22.5 ± 0.37 | 19.5 ± 0.9 | 25.9 ± 0.65 | 14.2 ± 1.06 | 60.9 ± 5.61 | 138.6 to 140.4 | 0.8 | 3.5 | 0.9 | 3.8 | 0.6 | 2.7 | 0.7 | 3.1 | 0.5 | 2.4
COc1cccc(OC)c1/C=C/C(=O)c1ccc2c(c1)CCO2 [b21, (E)-1-(2,3-Dihydrobenzofuran-5-yl)-3-(2,6-dimethoxyphenyl)prop-2-en-1-one] | 17.3 ± 0.23 | 21.6 ± 0.43 | 22.6 ± 2.1 | 22.3 ± 0.99 | 24.4 ± 0.6 | 14.6 ± 0.81 | 57.5 ± 13.6 | 118.8 to 120.2 | 0.8 | 3.3 | 0.7 | 2.7 | 0.6 | 2.5 | 0.7 | 2.6 | 0.6 | 2.4
COc1cccc(OC)c1/C=C/C(=O)c1ccccc1O [b24, (E)-1-(2-Hydroxyphenyl)-3-(2,6-dimethoxyphenyl)prop-2-en-1-one] | 7.77 ± 0.08 | 13.4 ± 0.74 | 10.7 ± 0.38 | 8.64 ± 0.31 | 16.1 ± 0.32 | 8.96 ± 0.44 | 24.2 ± 2.71 | 114.2 to 115.9 | 1.2 | 3.1 | 0.7 | 1.8 | 0.8 | 2.3 | 1.0 | 2.8 | 0.6 | 1.5
COc1cccc(OC)c1/C=C/C(=O)c1cccc(O)c1 [b25, (E)-1-(3-Hydroxyphenyl)-3-(2,6-dimethoxyphenyl)prop-2-en-1-one] | 7.27 ± 0.13 | 9.56 ± 0.33 | 8.92 ± 0.25 | 12.7 ± 0.28 | 21 ± 0.43 | 6.31 ± 0.13 | 19.6 ± 1.29 | 138.1 to 139.7 | 0.9 | 2.7 | 0.7 | 2.1 | 0.7 | 2.2 | 0.5 | 1.5 | 0.3 | 0.9
COc1cccc(OC)c1/C=C/C(=O)c1ccc(O)cc1 [b26, (E)-1-(4-Hydroxyphenyl)-3-(2,6-dimethoxyphenyl)prop-2-en-1-one] | 14.4 ± 0.81 | 12.7 ± 0.81 | 20.2 ± 0.3 | 23.8 ± 1.56 | 20.8 ± 0.54 | 12.6 ± 2.82 | 28.2 ± 1.69 | 189.6 to 191.4 | 0.9 | 2.0 | 1.0 | 2.2 | 0.6 | 1.4 | 0.5 | 1.2 | 0.6 | 1.4
